Source: US7410655B2, “Anticancer agent” (Nobel Limited Liability Company, priority 2001, dated 2008)

System: PA-23 rhabdomyosarcoma
Test: PA-23 rhabdomyosarcoma lung metastases after inoculation in the caudal vein of rats
Format: in vivo
Details: Example 2; 0.003 mg/ml in sodium chloride isotonic solution
Procedure: The preparation anti-tumor action was tested on female white rats.
The PA-23 rhabdomyosarcoma cell suspension was inoculated in the caudal vein of all rats, being generally used as a model for investigating the ability of such preparations to inhibit stroma development, which is characteristic of most malignant tumors.
All the animals were divided into 5 groups. On the following day after the inoculation a physiological solution was intra-abdominal injected into the rats of Group 1 (0.5 ml per animal); 0.1 ml of the preparation—into the rats of Group 2, 0.3 ml of the preparation—into the rats of Group 3; 0.5 ml of the preparation—into the rats of Group 4; and 0.8 ml of the preparation—into the rats of Group 5. Prior to administration the preparation had been diluted with a physiological solution in the ratio of 1 to 10.
Subsequent administration of the preparation […] was carried out every third day. On the 20 th day following the tumoral inoculation the rats were destroyed. Their bodies were dissected, the number of metastases in their lungs calculated and their respective weight determined by means of analytical balance weighing.
As in Example 1, the PA-23 rhabdomyosarcomas were used as a model. Tumoral inoculation was performed in a similar way. The laboratory animals were also divided into groups. The sodium chloride isotonic solution was injected into Group 1 (control), potassium tetrachloroplatinate in the sodium chloride isotonic solution—into Group 2, ammonium lignohumic acid salts in the sodium chloride isotonic solution were injected into Group 3, injections of the proposed preparation diluted with a physiological solution in the ratio of 1 to 10 were given to Group 4.

## [Cl][Pt-2]([Cl])([Cl])[Cl].[K+].[K+] [Potassium tetrachloroplatinate solution, potassium tetrachloroplatinate]
  Average number of metastases per rat: 33.2 ± 6.2
  Average weight of 1 metastasis: 42.9 ± 4.3 mg
  Average weight of 1 metastasis, % of the Control Group: 88.5%
  Number of metastases: 531
